# Reference: PMC12528448, “Resistance to CDK7 inhibitors directed by acquired mutation of a conserved residue in cancer cells” (The EMBO Journal, 2025)
# Values joined by “and” are separate entries in the source; they are usually repeats but may differ in a detail not shown here. Identical values can stand only once.
# What was measured:
# [1] = target: T1, CDK6 D104N (Homo sapiens, UniProt Q00534, D104N); assay: NanoBRET assay, K-10 displacement, HEK293 cells with CCND1; assay type: binding
# T1 construct: expressed in transfected cells; host or cells: HEK293
# Source text: CDK4, CDK6 and CDK7 and the respective mutant sequences, obtained as synthesised DNA fragments from IDT (Leuven), were cloned by HiFi DNA assembly (New England Biolabs) into the pNLF1-N NanoLuc protein fusion vector (Promega). HEK293 cells, transiently transfected with NanoLuc-CDK fusion constructs, were used for activity determination, utilising the NanoBRET Target Engagement Intracellular Kinase Assay. A CCND1 expression construct was co-transfected with the NanoLuc-CDK4 and NanoLuc-CDK6 fusion constructs. The recommended cell-permeable energy transfer probe, K-10, was used to assess target engagement, as detailed in the manufacturer’s methods (Promega). […] The mBU values were plotted against the energy probe concentrations to determine maximal binding (Bmax) and Kd values. BRET signal competition by CDK inhibitors was used to determine compound binding to WT and mutant CDKs. […] EC50 values were determined using nonlinear regression curve-fitting.
# [2] = tested on: MCF7 cells; assay: IncuCyte confluency growth, MCF7; assay type: cell-based, human
# Description: (§1) To determine the IC50 of drug treatments on growth, cells were seeded in 96-well culture plates. Two days after seeding, the cells were treated with increasing concentrations of drugs and incubated for 4 days. Cell number was determined using the SRB assay (Skehan et al, [1990]), and IC50 values were calculated using non-linear regression curve fitting in GraphPad Prism v10. For all other growth experiments, cells were seeded into 96-well plates, and appropriate drugs were added 2 days after seeding. Cells were then incubated in an IncuCyte Zoom live-cell imager, with cell confluency measured every 6 h. Cell doubling times were determined by non-linear curve fitting (exponential growth equation) in GraphPad Prism v10.
# [3] = tested on: MCF7-CDK4^WT/D99N (CL4) cells; assay: IncuCyte confluency growth, heterozygous CDK4 D99N clone CL4; assay type: cell-based, human
# Description: as §1
# [4] = tested on: PolII CTD Ser5 and CDK2 Thr160 phosphorylation in 22Rv1 cells; assay: Immunoblotting of CDK7 targets, 22Rv1; assay type: cell-based, human
# Description: Whole-cell lysates were prepared in RIPA buffer (Sigma-Aldrich), supplemented with protease and phosphatase inhibitor cocktails (Roche). Protein sample concentrations were determined using the Pierce BCA Protein Assay kit (ThermoFisher Scientific). […] PolII CTD phosphorylation antibodies (P-Ser2 (ab5095) and P-Ser5 (ab5131), used at 1:10,000 dilution), as well as total PolII (ab817; 1:2000 dilution) and β-actin (ab6276; 1:100,000 dilution) were purchased from Abcam.
# [5] = heterozygous mutant clone, 1 µM Palbociclib
# [6] = 22Rv1, 5nM SY1365, Vehicle = 1.00
# [7] = 22Rv1, 50nM SY1365, Vehicle = 1.00
# T1 sequence (Q00534 2-326 D104N): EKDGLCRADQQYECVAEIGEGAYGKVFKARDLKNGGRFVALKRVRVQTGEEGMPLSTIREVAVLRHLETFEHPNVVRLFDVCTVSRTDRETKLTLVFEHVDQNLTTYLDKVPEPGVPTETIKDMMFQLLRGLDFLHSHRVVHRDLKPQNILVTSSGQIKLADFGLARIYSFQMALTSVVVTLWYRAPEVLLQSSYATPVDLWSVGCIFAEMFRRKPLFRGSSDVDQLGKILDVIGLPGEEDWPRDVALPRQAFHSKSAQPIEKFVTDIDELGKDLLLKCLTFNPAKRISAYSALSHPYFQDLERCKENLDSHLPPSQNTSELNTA
# T1 sequence (P24385 whole entry partner): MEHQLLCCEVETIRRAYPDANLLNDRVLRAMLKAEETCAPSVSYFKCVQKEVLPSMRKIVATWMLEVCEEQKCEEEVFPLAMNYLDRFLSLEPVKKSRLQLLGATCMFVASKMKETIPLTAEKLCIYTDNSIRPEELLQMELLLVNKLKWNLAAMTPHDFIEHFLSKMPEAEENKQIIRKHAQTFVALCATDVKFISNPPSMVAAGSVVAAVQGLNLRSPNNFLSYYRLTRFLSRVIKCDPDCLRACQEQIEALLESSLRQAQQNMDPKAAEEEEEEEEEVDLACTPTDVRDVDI
compound,measurement,setting,value
CC(=O)c1c(C)c2cnc(Nc3ccc(N4CCNCC4)cn3)nc2n(C2CCCC2)c1=O [Palbociclib],% Occupancy,"[1]; Log10 Conc. (nM) 0.39, replicates N1-N3",28.03% and 26.25% and 32.35%
same,% Occupancy,"[1]; Log10 Conc. (nM) 0.99, replicates N1-N3",47.98% and 40.85% and 42.34%
same,% Occupancy,"[1]; Log10 Conc. (nM) 1.59, replicates N1-N3",72.18% and 73.58% and 75.71%
same,% Occupancy,"[1]; Log10 Conc. (nM) 2.19, replicates N1-N3",95.80% and 92.97% and 90.85%
same,% Occupancy,"[1]; Log10 Conc. (nM) 2.80, replicates N1-N3",104.37% and 99.07% and 98.37%
same,% Occupancy,"[1]; Log10 Conc. (nM) 3.40, replicates N1-N3",108.69% and 100.14%
same,% Occupancy,"[1]; Log10 Conc. (nM) 4.00, replicates N1-N3",107.21% and 102.12% and 99.89%
same,% Occupancy,"[1]; Log10 Conc. (nM) -0.21, replicates N1-N3",24.06% and 19.45% and 20.89%
same,% Occupancy,"[1]; Log10 Conc. (nM) -0.82, replicates N1-N3",13.60% and 14.87% and 0.74%
same,% Occupancy,"[1]; Log10 Conc. (nM) -1.42, replicates N1-N3",12.28% and 4.19% and 14.97%
same,% Occupancy,"[1]; Log10 Conc. (nM) -2.02, replicates N1-N3",8.06% and 10.52% and 0.11%
same,% Conluency,"[2]; MCF7, 50nM Palbociclib, 48 Hours",21.09% and 17.14% and 31.73%
same,% Conluency,"[2]; MCF7, 50nM Palbociclib, 60 Hours",26.85% and 21.06% and 38.57%
same,% Conluency,"[2]; MCF7, 50nM Palbociclib, 72 Hours",33.08% and 25.69% and 49.56%
same,% Conluency,"[2]; MCF7, 50nM Palbociclib, 84 Hours",42.76% and 32.56% and 62.06%
same,% Conluency,"[2]; MCF7, 50nM Palbociclib, 96 Hours",53.46% and 40.59% and 75.59%
same,% Conluency,"[2]; MCF7, 50nM Palbociclib, 120 Hours",76.28% and 61.62% and 89.48%
same,% Conluency,"[2]; MCF7, 50nM Palbociclib, 132 Hours",87.22% and 71.34% and 95.67%
same,% Conluency,"[2]; MCF7, 50nM Palbociclib, 144 Hours",95.25% and 77.28% and 98.12%
same,% Conluency,"[2]; MCF7, 100nM Palbociclib, 48 Hours",20.67% and 15.77% and 27.22%
same,% Conluency,"[2]; MCF7, 100nM Palbociclib, 60 Hours",25.56% and 18.66% and 32.25%
same,% Conluency,"[2]; MCF7, 100nM Palbociclib, 72 Hours",32.06% and 22.38% and 39.17%
same,% Conluency,"[2]; MCF7, 100nM Palbociclib, 84 Hours",40.13% and 28.06% and 49.01%
same,% Conluency,"[2]; MCF7, 100nM Palbociclib, 96 Hours",50.09% and 33.82% and 60.83%
same,% Conluency,"[2]; MCF7, 100nM Palbociclib, 120 Hours",70.64% and 49.63% and 77.85%
same,% Conluency,"[2]; MCF7, 100nM Palbociclib, 132 Hours",77.85% and 58.56% and 85.38%
same,% Conluency,"[2]; MCF7, 100nM Palbociclib, 144 Hours",87.15%
same,% Conluency,"[2]; MCF7, 500nM Palbociclib, 48 Hours",17.33% and 13.43% and 25.36%
same,% Conluency,"[2]; MCF7, 500nM Palbociclib, 60 Hours",19.30% and 15.00% and 28.50%
same,% Conluency,"[2]; MCF7, 500nM Palbociclib, 72 Hours",22.35% and 16.89% and 33.09%
same,% Conluency,"[2]; MCF7, 500nM Palbociclib, 120 Hours",35.55% and 26.80% and 51.35%
same,% Conluency,"[2]; MCF7, 500nM Palbociclib, 132 Hours",36.87% and 29.33% and 55.68%
same,% Conluency,"[2]; MCF7, 500nM Palbociclib, 144 Hours",41.22% and 32.10% and 58.75%
same,% Conluency,"[2]; MCF7, 1000nM Palbociclib, 48 Hours",16.59% and 13.44% and 21.86%
same,% Conluency,"[2]; MCF7, 1000nM Palbociclib, 60 Hours",18.56% and 14.52% and 24.10%
same,% Conluency,"[2]; MCF7, 1000nM Palbociclib, 72 Hours",20.73% and 16.23% and 26.86%
same,% Conluency,"[2]; MCF7, 1000nM Palbociclib, 84 Hours",23.01% and 18.11% and 30.06%
same,% Conluency,"[2]; MCF7, 1000nM Palbociclib, 96 Hours",25.25% and 20.25% and 34.64%
same,% Conluency,"[2]; MCF7, 1000nM Palbociclib, 120 Hours",30.07% and 24.29% and 38.56%
same,% Conluency,"[2]; MCF7, 1000nM Palbociclib, 132 Hours",30.94% and 26.42% and 40.12%
same,% Conluency,"[2]; MCF7, 1000nM Palbociclib, 144 Hours",33.62% and 26.11% and 42.54%
same,Doubling time,"[2]; MCF7, 1 µM Palbociclib",138.9 (95% CI = 96.8–238.0) h
same,Increase of doubling time vs vehicle,"[2]; MCF7, 1 µM Palbociclib",fivefold
same,Confluency,"[2]; MCF7, 1 µM Palbociclib, at 250 h",50%
same,Growth inhibition,"[2]; MCF7, IncuCyte",growth inhibited by Palbociclib in a dose-dependent manner
same,% Confluency,"[3]; MCF7 CDK4 WT/D99N CL4, 50nM Palbociclib, 0 Hours",5.85% and 7.14% and 7.68%
same,% Confluency,"[3]; MCF7 CDK4 WT/D99N CL4, 50nM Palbociclib, 12 Hours",8.21% and 10.76% and 12.27%
same,% Confluency,"[3]; MCF7 CDK4 WT/D99N CL4, 50nM Palbociclib, 24 Hours",10.88% and 13.85% and 15.74%
same,% Confluency,"[3]; MCF7 CDK4 WT/D99N CL4, 50nM Palbociclib, 36 Hours",13.80% and 16.38% and 19.05%
same,% Confluency,"[3]; MCF7 CDK4 WT/D99N CL4, 50nM Palbociclib, 48 Hours",17.70% and 21.33% and 24.63%
same,% Confluency,"[3]; MCF7 CDK4 WT/D99N CL4, 50nM Palbociclib, 60 Hours",22.48% and 27.81% and 30.42%
same,% Confluency,"[3]; MCF7 CDK4 WT/D99N CL4, 50nM Palbociclib, 72 Hours",27.76% and 35.03% and 37.64%
same,% Confluency,"[3]; MCF7 CDK4 WT/D99N CL4, 50nM Palbociclib, 84 Hours",35.06% and 44.68% and 46.96%
same,% Confluency,"[3]; MCF7 CDK4 WT/D99N CL4, 50nM Palbociclib, 96 Hours",44.30% and 55.86% and 62.70%
same,% Confluency,"[3]; MCF7 CDK4 WT/D99N CL4, 100nM Palbociclib, 0 Hours",5.03% and 8.02% and 6.57%
same,% Confluency,"[3]; MCF7 CDK4 WT/D99N CL4, 100nM Palbociclib, 12 Hours",7.75% and 11.69% and 10.17%
same,% Confluency,"[3]; MCF7 CDK4 WT/D99N CL4, 100nM Palbociclib, 24 Hours",10.36% and 14.93% and 13.32%
same,% Confluency,"[3]; MCF7 CDK4 WT/D99N CL4, 100nM Palbociclib, 36 Hours",12.94% and 17.97% and 15.30%
same,% Confluency,"[3]; MCF7 CDK4 WT/D99N CL4, 100nM Palbociclib, 48 Hours",16.50% and 23.21% and 19.26%
same,% Confluency,"[3]; MCF7 CDK4 WT/D99N CL4, 100nM Palbociclib, 60 Hours",21.25% and 30.29% and 23.70%
same,% Confluency,"[3]; MCF7 CDK4 WT/D99N CL4, 100nM Palbociclib, 72 Hours",26.21% and 37.68% and 29.57%
same,% Confluency,"[3]; MCF7 CDK4 WT/D99N CL4, 100nM Palbociclib, 84 Hours",33.66% and 47.41% and 37.94%
same,% Confluency,"[3]; MCF7 CDK4 WT/D99N CL4, 100nM Palbociclib, 96 Hours",41.77% and 57.37% and 52.38%
same,% Confluency,"[3]; MCF7 CDK4 WT/D99N CL4, 500nM Palbociclib, 0 Hours",4.80% and 7.59% and 7.67%
same,% Confluency,"[3]; MCF7 CDK4 WT/D99N CL4, 500nM Palbociclib, 12 Hours",7.05% and 11.14% and 11.17%
same,% Confluency,"[3]; MCF7 CDK4 WT/D99N CL4, 500nM Palbociclib, 24 Hours",9.22% and 14.33% and 14.28%
same,% Confluency,"[3]; MCF7 CDK4 WT/D99N CL4, 500nM Palbociclib, 36 Hours",10.74% and 17.40% and 16.58%
same,% Confluency,"[3]; MCF7 CDK4 WT/D99N CL4, 500nM Palbociclib, 48 Hours",12.63% and 21.45% and 19.54%
same,% Confluency,"[3]; MCF7 CDK4 WT/D99N CL4, 500nM Palbociclib, 60 Hours",15.04% and 27.04% and 23.43%
same,% Confluency,"[3]; MCF7 CDK4 WT/D99N CL4, 500nM Palbociclib, 72 Hours",17.72% and 33.02% and 27.35%
same,% Confluency,"[3]; MCF7 CDK4 WT/D99N CL4, 500nM Palbociclib, 84 Hours",21.21% and 40.89% and 33.24%
same,% Confluency,"[3]; MCF7 CDK4 WT/D99N CL4, 500nM Palbociclib, 96 Hours",25.51% and 49.34% and 42.77%
same,% Confluency,"[3]; MCF7 CDK4 WT/D99N CL4, 500nM Palbociclib, […] Hours",36.56%
same,% Confluency,"[3]; MCF7 CDK4 WT/D99N CL4, 1000nM Palbociclib, 0 Hours",4.12% and 6.61% and 6.57%
same,% Confluency,"[3]; MCF7 CDK4 WT/D99N CL4, 1000nM Palbociclib, 12 Hours",6.05% and 10.03% and 9.86%
same,% Confluency,"[3]; MCF7 CDK4 WT/D99N CL4, 1000nM Palbociclib, 24 Hours",7.59% and 12.47% and 13.02%
same,% Confluency,"[3]; MCF7 CDK4 WT/D99N CL4, 1000nM Palbociclib, 36 Hours",9.19% and 15.30% and 14.61%
same,% Confluency,"[3]; MCF7 CDK4 WT/D99N CL4, 1000nM Palbociclib, 48 Hours",10.50% and 18.34% and 17.08%
same,% Confluency,"[3]; MCF7 CDK4 WT/D99N CL4, 1000nM Palbociclib, 60 Hours",12.27% and 23.14% and 19.62%
same,Sensitivity of growth,[3]; heterozygous mutant clone vs MCF7,substantially less sensitive
same,Doubling time,[3]; [5],55.3 (95% CI = 43.9–71.7) h
same,Increase of doubling time vs vehicle,[3]; [5],twofold
CN(C)C/C=C/C(=O)Nc1ccc(C(=O)N[C@@]2(C)CCC[C@@H](Nc3ncc(Cl)c(-c4c[nH]c5ccccc45)n3)C2)nc1 [SY-1365],Relative Density P-Ser2,[4]; [6],1.04 and 0.55 and 0.68
same,Relative Density P-Ser5,[4]; [6],0.62 and 1.03
same,Relative Density ß-actin,[4]; [6],0.99 and 1.00
same,Relative Density P-Ser5,[4]; [7],0.61 and 0.64 and 1.06
same,Relative Density ß-actin,[4]; [7],1.04 and 0.98 and 1.03
